Measurements reported in EP1655287A1, “PROBE FOR DISEASES WITH AMYLOID ACCUMULATION, AMYLOID-STAINING AGENT, REMEDY AND PREVENTIVE FOR DISEASES WITH AMYLOID ACCUMULATION AND DIAGNOSTIC PROBE AND STAINING AGENT FOR NEUROFIBRILLARY CHANGE” (priority 2003, dated 2005).

Columns and labels:
[1] = test system: Amyloid β-protein; assay: Screening of the degree of β-structure recognition (fluorescence, in the presence of Congo red); type: binding; conditions: test compound 5 µM, amyloid β-protein 5 µM, Congo red 0.1 µM, phosphate buffer pH 7.4
[2] = target: T1, senile plaques (Homo sapiens, UniProt P05067); assay: Staining of senile plaques and diffuse plaques in brain sections, compared with thioflavin S, BSB or anti-Aβ antibody 6F/3D immunostaining; type: binding, patient with Alzheimer's disease; conditions: 100 µM compound in 50% ethanol; for staining properties compared with immunostaining of anti-Aβ antibody 6F/3D: adjacent sections immunostained with 6F/3D; for staining properties in sections of the brain of a patient with Alzheimer's disease: compared with thioflavin S (and BSB) on adjacent sections
T1 construct: The former has, as the main component, amyloid β-protein (Aβ protein) taking β-sheet structures; from tissue; host or cells: paraffin-embedded temporal lobe or hippocampus sections of an Alzheimer's disease patient's brain (Fukushimura Hospital)
T1 sequence (P05067 672-713 limits assumed): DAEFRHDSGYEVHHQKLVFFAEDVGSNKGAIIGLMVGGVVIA
Source text: The following explanation is made about testing of staining properties of the compounds of the present invention on brain sections of an Alzheimer's disease patient. • (1) Temporal lobe or hippocampus specimens of the brain of a patient who had been definitely diagnosed pathologically as Alzheimer's disease and of a normal aged individual were used. These specimens were provided from Fukushimura Hospital, our joint research facility, with the consent to their use for research purpose received from the bereaved family of the patient (BF Research Laboratories Institutional Ethics Board Permission No. RS-99-02). • (2) The brain tissues embedded in paraffin were sliced 6 or 8 µm thick, extended on slides, and dried. The paraffin-embedded brain sections were deparaffined by washing sequentially with xylene (10 minutes, twice), 100% ethanol (15 minutes, twice), 95% ethanol (15 minutes, twice), and a stream of water (10 minutes). • (3) Pre-treatment for staining with compounds of the present invention involved treating the sections for eliminating self-fluorescence due to lipofuscin. First, the deparaffined sections were immersed into a 10% formalin solution for 60 minutes and washed with PBS for 5 minutes, followed by immersion into a 0.25% solution of KMnO4 for 90 minutes. After washing twice with PBS for 2 minutes each, the sections were immersed into a solution of 0.1% K2S2O5/oxalic acid for about 30 seconds each, and then washed three times with PBS for 2 minutes each. • (4) About 150 µl of a 100 µM solution of a compound of the present invention dissolved in 50% ethanol was added dropwise onto the sections and allowed the reaction to be carried out for 10 minutes. The sections were dipped into tap water five times, and then 50% ethanol three to five times, followed by immediate classification. After that, the sections were immersed into PBS for 60 minutes, enclosed with Fluor Save Reagent (Calbiochem), and examined under a fluorescent microscope (Nikon, Eclips E800). Pictures were taken using a digital camera (Plaroid PDMCII).
Immunostaining was carried out as follows. • (a) Procedures for immunostaining amyloid β-protein: • (1) After the sections were deparaffined, the sections were washed twice in distilled water for 2 minutes each, and tissues were marked with an Immunopen. About 150 µl of formic acid was added dropwise and allowed to stand at room temperature for 5 minutes. The sections were washed with tap water for 5 minutes and immersed into cold PBS-Tween 20 for 2 minutes, and then about 150 µl of a 0.05% trypsin solution was added dropwise and allowed the reaction to be carried out at 37°C for 15 minutes. • (2) In an ice bath, the sections were washed twice with cold PBS-Tween 20 for 5 minutes each, and two drops of blocking serum were added and allowed the reaction to be carried out at 37°C for 15 minutes. Excess water was removed, and about 150 µl of 6F/3D, an antibody specific to amyloid β-protein (DAKO; diluted 1:50) was added dropwise and allowed the reaction to be carried out at 37°C for 1 hour. • (3) Further, after washing five times with cold PBS-Tween 20 for 2 minutes each, two drops of a solution of goat antimouse IgG (H+L) conjugated to biotin were added and allowed the reaction to be carried out at 37°C for 1 hour. After that, the sections were washed three times with cold PBS-Tween 20 for 2 minutes each, and two drops of ABS solution (a streptavidin-biotin-peroxidase complex solution) were added and allowed to stand for 30 minutes. The sections were again washed three times with cold PBS-Tween 20 for 2 minutes each, and about 150 µl of DAB solution (prepared by dissolving 10 mg of DAB in 20 ml of 0.05 mol/l Tris-HCl buffer and adding 100 µl of 3% hydrogen peroxide immediately before use) were added and allowed the color to be developed sufficiently. Then, the sections were washed with distilled water for 1 minute to stop the reaction, enclosed, and examined under a microscope.

[3] = Blood-brain barrier permeability after intravenous administration; conditions: for Plasma: mice, content in plasma two minutes after intravenous administration; for tissue uptake at 2 min: mouse, brain, iv
Method: (B) Testing of blood-brain barrier permeability Measurements of blood-brain barrier permeability were made according to the following procedures. Compounds of the present invention were intravenously administered to mice to determine their in vivo blood-brain barrier permeability. • (1) Mice utilized Slc:ICR weighing 30-40 g (7 weeks old, n=3) (Nippon SLC). • (2) A test compound was dissolved in a mixture of 1N HCl, polyethylene glycol 400, and DMSO, or in DMSO or ethyl alcohol, and then diluted with purified water, and injected via tail vein. Two minutes after administration, the mice, under ether anesthesia, were subjected to taking blood from the abdominal aorta with a heparin-treated syringe and removing the brain. • (3) After taking blood, blood samples were centrifuged at 14,000 rpm at 4°C for 10 minutes, and their supernatants were kept at -80°C as plasma sample. The brain (including cerebellum) was kept at -80°C after its removal. • (4) The plasma sample, when used, was thawed, diluted with purified water, and then applied to a conditioned C18 solid-phase extraction cartridge (bond elute C18, 200 mg, Varian), followed by elution with methyl alcohol. Alternatively, after thawing the plasma sample, a diethyl ether/cyclohexane mixture was added, and the mixture was shaken, and then centrifuged to separate an oil layer. • (5) The brain material, when used, was subjected to measuring its wet weight with the brain remaining frozen, and saline was added to the brain for homogenization. The homogenate was centrifuged for 10 minutes, and the supernatant was applied to a conditioned C18 solid-phase extraction cartridge and eluted with methyl alcohol. Alternatively, after measuring the wet weight of the frozen brain, a diethyl ether/cyclohexane mixture was added to the brain, and the mixture was homogenized, shaken, and then centrifuged to separate an oil layer. • (6) The absorbance and fluorescence were detected employing high performance liquid chromatography. • (7) For each of the plasma and brain, the content of the test compound in the plasma or brain (%ID (injected dose)/ml or g) was determined, relative to the administered dose.

[4] = Acute toxicity testing, intravenous administration; type: in vivo; conditions: male Crj:CD1 mice, via tail vein, observed up to 7 days; for MTD at 168 h: mouse, in vivo, iv, read-out: Maximum Tolerated Dose (mg/kg, intravenous administration)
Method: The following explanation is made of testing methods for properties of the compounds of the present invention. (A) Testing of acute toxicity Acute toxicity of the inventive compounds was determined employing mice by intravenous administration. Male Crj:CD1 mice were used and divided into groups of 4 mice, with an average weight of each group of 31-32 g. […] Up to 7 days after administration, observations were made.

Row | staining properties in sections of the brain of a patient with Alzheimer's disease [2] | Compound | Degree of β-structure recognition (%) [1] [%] | further results
1 |  | 2-[2-(2-dimethylamino-1,3,4-thiazol-5-yl)ethenyl]benzoxazole [BF-237] | 76.5 | 
2 | mainly stains senile plaques | CNc1ccc(/C=C/C=C/c2nc3ccccc3o2)cc1 [BF-185, 2-[[4-(4-methylamino)phenyl]-1,3-butadienyl)benzoxazole] | 82.7 | staining properties compared with immunostaining of anti-Aβ antibody 6F/3D [2]: stains senile plaques (Fig. 3, wedge-shaped arrowheads) and diffuse plaques; Plasma [3]: 1.0 %ID/g or ml
3 | stains senile plaques | CNc1ccc(/C=C/C=C/c2nc3ccccc3s2)cc1 [BF-187, 2-[[4-(4-methylamino)phenyl]-1,3-butadienyl)benzothiazole] | 63.3 | Plasma [3]: 1.3 %ID/g or ml
4 | stains senile plaques | CNc1ccc(/C=C/C=C/c2nc3ccccc3[nH]2)cc1 [BF-188, 2-[[4-(4-methylamino)phenyl]-1,3-butadienyl]benzoimidazole] | 68.9 | Plasma [3]: 1.7 %ID/g or ml
5 | mainly stains senile plaques | CN(C)c1ncc(/C=C/c2nc3ccccc3s2)s1 [BF-196, 2-[2-(2-dimethylaminothiazol-5-yl)ethenyl]benzothiazole] | 53.5 | staining properties compared with immunostaining of anti-Aβ antibody 6F/3D [2]: stains senile plaques; Plasma [3]: 1.8 %ID/g or ml; tissue uptake at 2 min [3]: 19 %ID/g
6 | stains senile plaques | Nc1ccc(/C=C/C=C/c2nc3ccc(O)cc3o2)c(O)c1 [BF-201] | 82.0 | staining properties compared with immunostaining of anti-Aβ antibody 6F/3D [2]: stains senile plaques
7 |  | CN(C)c1ncc(-c2ccc3ccccc3n2)o1 [BF-221, 2-(2-dimethylaminooxazol-5-yl)quinoline] | 73.8 | 
8 |  | CN(C)c1ncc(/C=C/c2ccc3ccccc3n2)s1 [BF-222, 2-[2-(2-dimethylaminothiazol-5-yl)ethenyl]quinoline] | 62.3 | Plasma [3]: 2.0 %ID/g or ml; tissue uptake at 2 min [3]: 13 %ID/g; MTD at 168 h [4]: ≥ 10 mg/kg
9 |  | CN(C)c1ncc(-c2nc3ccccc3o2)s1 [BF-225, 2-(2-dimethylaminothiazol-5-yl)benzoxazole] | 87.5 | 
10 |  | Cc1ccc(S(=O)(=O)OCCOc2ccc3nc(/C=C/c4cnc(N(C)C)s4)oc3c2)cc1 [BF-226, 2-[2-(2-dimethylaminothiazol-5-yl)ethenyl]-6-[2-(4-tosyloxy)ethoxy]benzoxazole] | 43.3 | 
11 |  | Cc1nc(/C=C/C=C/c2ccc(N(C)C)cc2)oc1C [BF-228, 2-[4-(4-dimethylaminophenyl)-1,3-butadienyl]-4,5-dimethyloxazole] | 83.8 | MTD at 168 h [4]: ≥ 10 mg/kg
12 |  | Cc1nc(/C=C/C=C/c2cnc(N(C)C)o2)oc1C [BF-229, 2-[4-(2-dimethylaminooxazol-5-yl)-1,3-butadienyl]-4,5-dimethyloxazole] | 70.7 | 
13 |  | CN(C)c1ncc(/C=C/c2nc3ccccc3o2)o1 [BF-230, 2-[2-(2-dimethylaminooxazol-5-yl)ethenyl]benzoxazole] | 74.0 | MTD at 168 h [4]: ≥ 10 mg/kg
14 |  | CNc1ncc(/C=C/c2ccc(O)cc2)s1 [BF-235, 5-(4-hydroxystyryl)-2-methylaminothiazole] | 65.5 | 
15 |  | CN(C)c1nnc(/C=C/c2nc3ccccc3o2)o1 [BF-238, 2-[2-(2-dimethylamino-1,3,4-oxazol-5-yl)ethenyl]benzoxazole] | 52.3 | 
16 |  | Nc1ncc(-c2ccc3ccccc3n2)s1 [BF-240, 2-(2-aminothiazol-5-yl)quinoline] | 49.9 | 
17 |  | CCC[CH2][Sn]([CH2]CCC)([CH2]CCC)[c]1ccc2nc(C=Cc3cnc(N(C)C)s3)oc2c1 [BF-246, 6-tri(n-butyl)stannyl-2-[2-(2-dimethylaminothiazol-5-yl)ethenyl]benzoxazole] | 24.6 | 
18 |  | CN(C)c1ncc(/C=C/c2nc3ccc(I)cc3o2)s1 [BF-247, 6-(iodo)-2-[2-(2-dimethylaminothiazol-5-yl)ethenyl]benzoxazole] | 43.7 | 
19 |  | CN(C)c1ncc(/C=C/c2nc3ccccc3[nH]2)s1 [BF-248, 2-[2-(2-dimethylaminothiazol-5-yl)ethenyl]benzimidazole] | 40.1 | 
20 |  | CN(C)c1cnc(/C=C/c2nc3ccccc3s2)o1 [BF-250, 2-[2-(5-dimethylaminooxazol-2-yl)ethenyl]benzothiazole] | 43.1 | 
21 |  | Cc1ccc(S(=O)(=O)OCCOc2ccc3nc(/C=C/c4cnc(N(C)C)s4)sc3c2)cc1 [BF-251, 2-[2-(2-dimethylaminothiazol-5-yl)ethenyl]-6-[2-(4-tosyloxy)ethoxy]benzothiazole] | 37.5 | 
22 |  | CN(C)c1ncc(/C=C/c2nc3ccc(OCCF)cc3s2)s1 [BF-252, 2-[2-(2-dimethylaminothiazol-5-yl)ethenyl]-6-[2-(fluoro)ethoxy]benzothiazole] | 47.0 | 
23 |  | Nc1cnc(-c2ccc3ccccc3n2)o1 [BF-255, 2-(5-アミノオキサゾール-2-イル)キノリン] | 65.8 | 
24 |  | Cc1ccc2c(c1)sc(-c1ccc(N(C)C)cc1)[n+]2C [Thioflavin T, reference compound] | 61.8 | 

Row | Compound | staining properties in sections of the brain of a patient with Alzheimer's disease [2] | Degree of β-structure recognition (%) [1] [%] | further results
25 | CNc1ccc(/C=C/C=C/C=C/c2ccc3ccccc3n2)cc1 [BF-189, 1-(4-methylaminophenyl)-6-(2-quinolyl)-1,3,5-hexatrien] | stains senile plaques | 79.8 | MTD at 168 h [4]: ≥ 10 mg/kg
26 | CN(C)c1ncc(/C=C/C=C/c2nc3ccccc3[nH]2)s1 [BF-231, 2-[4-(2-dimethylaminothiazol-5-yl)-1,3-butadienyl]benzoimidazole] | stains senile plaques | 47.2 | Maximum Tolerated Dose (mg/kg, intravenous administration) [4]: ≧ 10 mg/kg
27 | O=C(O)c1cc(/C=C/c2ccc(/C=C/c3ccc(O)c(C(=O)O)c3)c(Br)c2)ccc1O [BSB, (trans, trans)-1-bromo-2,5-bis-(3-hydroxycarbonyl-4-hydroxy)styrylbenzen, reference compound] | stains both senile plaques and neurofibrillary tangles |  | 
28 | thioflavin S [reference compound] | stains both senile plaques and neurofibrillary tangles |  | 
